Laboratory results as given in US8993618B2, “Composition for treating influenza A (H1N1) virus and a preparation method therefor” (priority 2010, dated 2015).
In brackets after ≈: the same amount, converted by molar mass. Where two headings read alike, the source gives them in different places.

Columns and labels:
in vitro [1] = conditions: human
in vitro [2] = conditions: human; remark: listed apart in the source
in vitro [3] = conditions: human, IC50 cytotoxicity MCF 7
in vitro [4] = conditions: human, IC50 cytotoxicity Hep 3B
in vitro [5] = conditions: human; remark: listed apart in the source
in vitro [6] = conditions: human; remark: listed apart in the source
[7] = MTT cytotoxicity assay, Hep G2; conditions: human, Hep G2 liver cancer cells
[8] = MTT cytotoxicity assay, Hep 3B; conditions: human, Hep 3B liver cancer cells, IC50 cytotoxicity Hep 3B
[9] = MTT cytotoxicity assay, Ca9-22; conditions: human, Ca9-22 oral cancer cells
[10] = MTT cytotoxicity assay, MDA-MB-231; conditions: human, MDA-MB-231 breast cancer cells
[11] = MTT cytotoxicity assay, A 549; conditions: human, A 549 lung cancer cells
[12] = MTT cytotoxicity assay, MCF 7; conditions: human, MCF 7 breast cancer cells, IC50 cytotoxicity MCF 7, MTT
influenza A virus (H1N1) = experiment: microbe, parasite or virus in culture; format: cell-based; conditions: for IC50 / IC90: Influenza A virus; for IC50: read-out: IC50, influenza A (H1N1) antiviral activity; for IC90: read-out: IC90, influenza A (H1N1) antiviral activity
[13] = system: Ca9-22 oral cancer cell line
[14] = system: Hep 3B liver cancer cell line
[15] = system: Hep G2 liver cancer cell line
[16] = system: MCF 7 breast cancer cell line
[17] = system: MDA-MB-231 breast cancer cell line
[18] = system: A 549 lung cancer cell line
[19] = system: Ca9-22 oral cancer cell line; experiment: MTT cytotoxicity assay, Ca9-22; conditions: MTT, 3 days
[20] = system: Hep G2 liver cancer cell line; experiment: MTT cytotoxicity assay, Hep G2; conditions: MTT, 3 days
[21] = system: Hep 3B liver cancer cell line; experiment: MTT cytotoxicity assay, Hep 3B; conditions: 3 days
[22] = system: MDA-MB-231 breast cancer cell line; experiment: MTT cytotoxicity assay, MDA-MB-231; conditions: MTT, 3 days
[23] = system: A 549 lung cancer cell line; experiment: MTT cytotoxicity assay, A 549; conditions: MTT, 3 days
[24] = system: MCF 7 breast cancer cell line; experiment: MTT cytotoxicity assay, MCF 7; conditions: MTT, 3 days
[25] = H1N1, 72 h, MDCK cells, XTT, 3 days, concentration achieving 50% cytoprotection
[26] = H1N1, 72 h, MDCK cells, XTT, 3 days
[27] = MDCK cells, XTT, 3 days, concentration achieving 50% cytoprotection

With `C[C@@H]1C[C@@H](O)[C@]2(C)[C@@H](C)C(=O)CC[C@H]2[C@]1(C)COc1ccc2ccc(=O)oc2c1` (single isomer, unassigned) [Kamolonol, kamolonol] the IC50 at 3 days (in vitro [1]) was over 20 µg/mL, the IC50 at 3 days (in vitro [2]) was over 20 µg/mL and the IC50 at 3 days (in vitro [3]) was over 20 µg/mL. It also gave an IC50 at 3 days (in vitro [4]) of 17.9 µg/mL (≈ 45 µM), an IC50 at 3 days (in vitro [5]) of over 20 µg/mL and an IC50 at 3 days (in vitro [6]) of over 20 µg/mL.
`C=C1CC[C@]2(C)C(C)(C)[C@@H](OC(C)=O)CC[C@]2(C)[C@H]1COc1ccc2ccc(=O)oc2c1` (single isomer, unassigned) [Polyanthinin, polyanthinin] gave an IC50 at 3 days (in vitro [3]) of 9.94 µg/mL (≈ 22.7 µM) and an IC50 at 3 days (in vitro [4]) of 5.9 µg/mL (≈ 13.5 µM).
For `COc1cc(C=O)ccc1O` (single isomer, unassigned) [Vanillin, vanillin], the IC50 at 3 days [7] was over 20 µg/mL, the IC50 at 3 days [8] was over 20 µg/mL and the IC50 at 3 days [9] was over 20 µg/mL. It also gave an IC50 at 3 days [10] of over 20 µg/mL, an IC50 at 3 days [11] of 16.4 µg/mL (≈ 108 µM) and an IC50 at 3 days [12] of 15.7 µg/mL (≈ 103 µM).
`NC12CC3CC(CC(C3)C1)C2` [Amantadine, reference compound] showed an IC50 (influenza A virus (H1N1); H1N1, MDCK, 72 h) of 0.92 ± 0.04 µg/mL (≈ 6.08 µM) and an IC90 (influenza A virus (H1N1); H1N1, MDCK, 72 h) of 1.73 ± 0.11 µg/mL (≈ 11.4 µM).
`CC(=O)O[C@H](CC/C(C)=C/CC/C(C)=C/COc1ccc2ccc(=O)oc2c1)C(C)(C)O` [Compound 2, 10′R-Acetoxy-11′-hydroxyumbelliprenin] showed an IC50 at 3 days (in vitro [1]) of over 20 µg/mL, an IC50 at 3 days (in vitro [2]) of over 20 µg/mL and an IC50 at 3 days (in vitro [3]) of over 20 µg/mL. The IC50 (influenza A virus (H1N1); [25]) was 0.94 ± 0.07 µg/mL (≈ 2.12 µM), the IC90 (influenza A virus (H1N1); [26]) was 1.98 ± 0.12 µg/mL (≈ 4.47 µM) and the IC50 at 3 days (in vitro [4]) was 19.8 µg/mL (≈ 44.7 µM). The IC50 at 3 days (in vitro [5]) was over 20 µg/mL and the IC50 at 3 days (in vitro [6]) was over 20 µg/mL.
For `CC(C)=CCC/C(C)=C/C(O)C/C(C)=C/COc1ccc2ccc(=O)oc2c1` (stereo not drawn) [Compound 4, 5′-hydroxyumbelliprenin], the “IC90, influenza A (H1N1) antiviral activity” value (influenza A virus (H1N1); MDCK cells, XTT, 3 days) was 0.62 ± 0.08 µg/mL (≈ 1.62 µM) and the “IC50, influenza A (H1N1) antiviral activity” value (influenza A virus (H1N1); [27]) was 0.36 ± 0.03 µg/mL (≈ 0.941 µM).
In the case of `C/C(=C\COc1ccc2ccc(=O)oc2c1)CC/C=C(\C)CCC(O)C(C)(C)O` (stereo not drawn) [Compound 5, 10′R-karatavicinol], the “IC50 cytotoxicity Ca9-22” value [13] is reported as over 20 µg/mL, the “IC50 cytotoxicity Hep 3B” value [14] is reported as over 20 µg/mL and the “IC50 cytotoxicity Hep G2” value [15] is reported as over 20 µg/mL. The “IC50 cytotoxicity MCF 7” value [16] was 14.27 µg/mL (≈ 35.6 µM), the “IC90, influenza A (H1N1) antiviral activity” value (influenza A virus (H1N1); MDCK cells, XTT, 3 days) was 2.05 ± 0.14 µg/mL (≈ 5.12 µM) and the “IC50, influenza A (H1N1) antiviral activity” value (influenza A virus (H1N1); [27]) was 0.99 ± 0.07 µg/mL (≈ 2.47 µM). For the same compound, the “IC50 cytotoxicity MDA-MB-231” value [17] was over 20 µg/mL and the “IC50 cytotoxicity A 549” value [18] was 10.97 µg/mL (≈ 27.4 µM).
For `CC(=O)OC(CC=C(C)C)/C(C)=C/[C@@H](O)C/C(C)=C/COc1ccc2ccc(=O)oc2c1` (stereo partly drawn) [Compound 6, 8′-acetoxy-5′S-hydroxyumbelliprenin], the “IC50 cytotoxicity Ca9-22” value [13] was 14.23 µg/mL (≈ 32.3 µM), the “IC50 cytotoxicity Hep 3B” value [14] was 9.82 µg/mL (≈ 22.3 µM) and the “IC50 cytotoxicity Hep G2” value [15] was 15.59 µg/mL (≈ 35.4 µM). For the same compound, the “IC50 cytotoxicity MCF 7” value [16] was over 20 µg/mL, the “IC90, influenza A (H1N1) antiviral activity” value (influenza A virus (H1N1); MDCK cells, XTT, 3 days) was 1.56 ± 0.11 µg/mL (≈ 3.54 µM) and the “IC50, influenza A (H1N1) antiviral activity” value (influenza A virus (H1N1); [27]) was 0.81 ± 0.06 µg/mL (≈ 1.84 µM). For the same compound, the “IC50 cytotoxicity MDA-MB-231” value [17] was over 20 µg/mL and the “IC50 cytotoxicity A 549” value [18] was over 20 µg/mL.
`COC(=O)CC[C@H]1C(=C(C)C)CC[C@H](C)[C@]1(C)COc1ccc2ccc(=O)oc2c1` [Compound 7, methyl galbanate] gave an IC50 at 3 days (in vitro [3]) of over 20 µg/mL, an IC50 (influenza A virus (H1N1); [25]) of 0.26 ± 0.03 µg/mL (≈ 0.63 µM) and an IC90 (influenza A virus (H1N1); [26]) of 0.44 ± 0.05 µg/mL (≈ 1.07 µM). For the same compound, the IC50 at 3 days (in vitro [4]) was 4.33 µg/mL (≈ 10.5 µM).
In the case of `CC(C)=C1CC[C@H](C)[C@](C)(COc2ccc3ccc(=O)oc3c2)[C@H]1CCC(=O)O` [Compound 8, galbanic acid], the IC50 (influenza A virus (H1N1); [25]) is reported as 0.45 ± 0.04 µg/mL (≈ 1.13 µM) and the IC90 (influenza A virus (H1N1); [26]) is reported as 0.88 ± 0.07 µg/mL (≈ 2.21 µM).
For `C/C(=C\COc1ccc2ccc(=O)oc2c1)CC[C@@H]1C(C)(C)[C@H]2CC[C@]1(C)O2` [Compound 9, farnesiferol C], the “IC90, influenza A (H1N1) antiviral activity” value (influenza A virus (H1N1); MDCK cells, XTT, 3 days) was 0.50 ± 0.07 µg/mL (≈ 1.31 µM) and the “IC50, influenza A (H1N1) antiviral activity” value (influenza A virus (H1N1); [27]) was 0.29 ± 0.02 µg/mL (≈ 0.758 µM).
With `C=C1CC[C@@H]2C(C)(C)[C@H](O)CC[C@@]2(C)[C@H]1COc1ccc2ccc(=O)oc2c1` [Compound 10, farnesiferol A] the “IC50 cytotoxicity Hep 3B” value [14] was 7.66 µg/mL (≈ 20 µM), the “IC50 cytotoxicity Hep G2” value [15] was 14.89 µg/mL (≈ 38.9 µM) and the “IC50 cytotoxicity MCF 7” value [16] was 15.57 µg/mL (≈ 40.7 µM). The “IC90, influenza A (H1N1) antiviral activity” value (influenza A virus (H1N1); MDCK cells, XTT, 3 days) was 0.64 ± 0.07 µg/mL (≈ 1.67 µM), the “IC50, influenza A (H1N1) antiviral activity” value (influenza A virus (H1N1); [27]) was 0.51 ± 0.04 µg/mL (≈ 1.33 µM) and the “IC50 cytotoxicity Ca9-22” value [19] was 12.07 µg/mL (≈ 31.6 µM). For the same compound, the “IC50 cytotoxicity MDA-MB-231” value [17] was 19.00 µg/mL (≈ 49.7 µM) and the “IC50 cytotoxicity A 549” value [18] was 15.79 µg/mL (≈ 41.3 µM).
In the case of `CC1=CC[C@@H]2C(C)(C)[C@@H](O)CC[C@@]2(C)[C@@H]1COc1ccc2ccc(=O)oc2c1` [Compound 11, conferol], the “IC50 cytotoxicity Hep 3B” value ([14]; human, 3 days) is reported as 2.63 µg/mL (≈ 6.88 µM), the “IC50 cytotoxicity MCF 7” value ([16]; human, 3 days) is reported as 3.38 µg/mL (≈ 8.84 µM) and the IC50 at 3 days (in vitro [3]) is reported as 3.4 µg/mL (≈ 8.89 µM). For the same compound, the IC50 (influenza A virus (H1N1); [25]) was 0.47 ± 0.05 µg/mL (≈ 1.23 µM), the IC90 (influenza A virus (H1N1); [26]) was 0.83 ± 0.09 µg/mL (≈ 2.17 µM) and the IC50 at 3 days (in vitro [4]) was 2.6 µg/mL (≈ 6.8 µM).
With `CC1=CC(=O)[C@@H]2C(C)(C)[C@H](O)CC[C@@]2(C)[C@@H]1COc1ccc2ccc(=O)oc2c1` [Compound 12, ligupersin A] the “IC90, influenza A (H1N1) antiviral activity” value (influenza A virus (H1N1); MDCK cells, XTT, 3 days) was 1.75 ± 0.12 µg/mL (≈ 4.41 µM) and the “IC50, influenza A (H1N1) antiviral activity” value (influenza A virus (H1N1); [27]) was 0.86 ± 0.08 µg/mL (≈ 2.17 µM).
With `CC1=CC(=O)[C@@H]2C(C)(C)C(=O)CC[C@@]2(C)[C@@H]1COc1ccc2ccc(=O)oc2c1` [Compound 13, epi-conferdione] the “IC90, influenza A (H1N1) antiviral activity” value (influenza A virus (H1N1); MDCK cells, XTT, 3 days) was 0.37 ± 0.03 µg/mL (≈ 0.938 µM) and the “IC50, influenza A (H1N1) antiviral activity” value (influenza A virus (H1N1); [27]) was 0.32 ± 0.02 µg/mL (≈ 0.811 µM).
`COc1cccc2c1C(=O)c1c(O)c3c(c(O)c1C2=O)C[C@@](O)(C(=O)CO)C[C@@H]3O[C@H]1C[C@H](N)[C@H](O)[C@H](C)O1` [Doxorubicin, reference compound] showed an IC50 at 3 days [7] of 0.16 µg/mL (≈ 0.294 µM), an IC50 at 3 days [8] of 0.41 µg/mL (≈ 0.754 µM) and an IC50 at 3 days [9] of 0.14 µg/mL (≈ 0.258 µM). It also gave an IC50 at 3 days [11] of 0.35 µg/mL (≈ 0.644 µM).
For foetisulfide C, the “IC50 cytotoxicity Hep G2” value [20] was over 20 µg/mL, the “IC50 cytotoxicity Hep 3B” value [21] was 19.21 µg/mL and the “IC50 cytotoxicity Ca9-22” value [19] was 16.48 µg/mL. The “IC50 cytotoxicity MDA-MB-231” value [22] was over 20 µg/mL, the “IC50 cytotoxicity A 549” value [23] was 9.14 µg/mL and the “IC50 cytotoxicity MCF 7” value [24] was over 20 µg/mL.
